Results from US20170369492A1 (Takeda Pharmaceutical Company Limited, priority 2014, published 2017).

Biological target: T1, human GPR43 (Homo sapiens, UniProt O15552)
T1 construct: expressed in transfected cells
T1 sequence (O15552 1-330): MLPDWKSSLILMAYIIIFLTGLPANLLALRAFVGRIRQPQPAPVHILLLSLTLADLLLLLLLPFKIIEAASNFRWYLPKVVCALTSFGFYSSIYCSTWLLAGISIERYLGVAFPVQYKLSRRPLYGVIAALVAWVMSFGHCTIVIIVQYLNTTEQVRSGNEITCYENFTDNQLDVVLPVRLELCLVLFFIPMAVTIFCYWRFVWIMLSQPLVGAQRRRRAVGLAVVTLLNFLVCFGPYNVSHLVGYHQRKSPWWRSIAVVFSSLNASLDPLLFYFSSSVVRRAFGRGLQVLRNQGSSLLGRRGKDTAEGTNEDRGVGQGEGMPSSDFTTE
Experiment: Ca-Flux Functional Assay: Determination of Agonist/Positive Allosteric Modulator (PAM) Activity
Type: cell-based
Settings: CHO-K1 Gα16 cells stably expressing human GPR43; compound added in the presence of EC20 sodium acetate; intracellular Ca2+ by FLIPR; agonist/PAM activity not distinguished
Description: Ca-Flux Functional Assay: Determination of Agonist/Positive Allosteric Modulator (PAM) Activity
GPR43 agonist/PAM activity was determined by measuring changes in intracellular calcium levels using a Ca^2+ sensitive fluorescent dye. The changes in fluorescent signal were monitored by FLIPR (manufactured by Molecular Devices). GPR43 mediated increases in intracellular Ca^2+ concentration were readily detected upon activation with sodium acetate. Prior to the assay (24 hours), CHO-K1 Gα16 cells stably expressing human GPR43 were-seeded in cell culture medium in black, clear-bottom 384-well plates (Corning Inc) and grown overnight at 37° C., 5% CO2. On the day of the assay, cell culture media was removed and cells were loaded with Calcium 5 Dye (Molecular Devices) diluted in HBSS containing 25 mM HEPES, 2.5 mM Probenecid, 0.1% BSA for 1 hour at 37° C., 5% CO2. 10 point half log concentration response curves of sodium acetate from 10 mM were conducted prior to the testing of compounds to calculate the sodium acetate concentration that produces 20% of the maximal response (EC20). Test compounds (at to point half log concentration response curves from 10 μM) were added in the presence of sodium acetate to achieve a final concentration that produces approximately 20% maximal response as calculated from the previous experiment. The changes in fluorescent signal were monitored by FLIPR upon addition of the compound/EC20 sodium acetate mix. The EC50 values were determined from ten point concentration response curves. Curves were generated using the average of two wells for each data point.
The above assay detects both GPR43 receptor agonists and positive allosteric modulators of the GPR43 receptor, without distinguishing between the two. Activity in either regard is useful in the treatment of conditions associated with GPR43 receptor activity.

SMILES | EC50
CNc1ncnc2c(S(=O)(=O)c3ccccc3)c(N)n(C3CCC(F)(F)CC3)c12 [Example 33, 7-(benzenesulfonyl)-5-(4,4-difluorocyclohexyl)-4-N-methyl-5H-pyrrolo[3,2-d]pyrimidine-4,6-diamine] | 2.72 µM
COc1ncnc2c(S(=O)(=O)c3ccccc3)c(N)n(C3CCCC3)c12 [Example 35, 7-(benzenesulfonyl)-5-cyclopentyl-4-methoxy-5H-pyrrolo[3,2-d]pyrimidin-6-amine] | 1.86 µM
Nc1c(S(=O)(=O)c2ccccc2)c2nccnc2n1C1CCCCC1O (stereo not drawn) [Example 47, 2-(6-amino-7-(phenylsulfonyl)-5H-pyrrolo[2,3-b]pyrazin-5-yl)cyclohexanol] | 6.49 µM
Nc1c(S(=O)(=O)c2ccccc2)c2ncnc(O)c2n1C1CCC(F)(F)CC1 [Example 31, 6-amino-5-(4,4-difluorocyclohexyl)-7-(phenylsulfonyl)-5H-pyrrolo[3,2-d]pyrimidin-4-ol] | 6.94 µM
Nc1c(S(=O)(=O)N2CC(Oc3ccccc3)C2)c2nccnc2n1C1CCCCC1 [Example 99, 5-cyclohexyl-7-(3-phenoxyazetidine-1-sulfonyl)-5H-pyrrolo[2,3-b]pyrazin-6-amine] | 1.55 µM
COc1nc(C)nc2c(S(=O)(=O)c3cccc(F)c3)c(N)n(C3CCCCC3)c12 [Example 39, 5-cyclohexyl-7-(3-fluorobenzenesulfonyl)-4-methoxy-2-methyl-5H-pyrrolo[3,2-d]pyrimidin-6-amine] | 0.657 µM
Nc1c(S(=O)(=O)NCC2CCC2)c2nccnc2n1C1CCCCC1 [Example 74, 6-amino-N-(cyclobutylmethyl)-5-cyclohexyl-5H-pyrrolo[2,3-b]pyrazine-7-sulfonamide] | 0.321 µM
Nc1c(S(=O)(=O)c2ccccc2)c2ncccc2n1C1CCCCC1 [Example 9, 3-(benzenesulfonyl)-1-cyclohexyl-1H-[3,2-b]pyridin-2-amine] | 1.25 µM
Cc1ccc2c(S(=O)(=O)c3ccccc3)c(N)n(C3CCC(F)(F)CC3)c2n1 [Example 25, 3-(benzenesulfonyl)-1-(4,4-difluorocyclohexyl)-6-methyl-1H-pyrrolo[2,3-b]pyridin-2-amine] | 1.1 µM
Nc1c(S(=O)(=O)c2ccccc2)c2nccnc2n1C1CCCCC1 [Example 1, 7-(benzenesulfonyl)-5-cyclohexyl-5H-pyrrolo[2,3-b]pyrazin-6-amine] | 0.261 µM
CC1(C)CC1Cn1c(N)c(S(=O)(=O)c2ccccc2)c2nccnc21 (stereo not drawn) [Example 56, 5-((2,2-dimethylcyclopropyl)methyl)-7-(phenylsulfonyl)-5H-pyrrolo[2,3-b]pyrazin-6-amine] | 1.3 µM
Nc1c(S(=O)(=O)c2ccccc2)c2nccnc2n1C1CCC(F)(F)CC1 [Example 49, 5-(4,4-difluoro-cyclohexyl)-7-(phenylsulfonyl)-5H-pyrrolo[2,3-b]pyrazin-6-amine] | 0.211 µM
CC(=O)N(C)C1CCN(S(=O)(=O)c2c(N)n(C3CCCCC3)c3nccnc23)CC1 [Example 79, N-(1-{6-amino-5-cyclohexyl-5H-pyrrolo[2,3-b]pyrazine-7-sulfonyl}piperidin-4-yl)-N-methylacetamide] | 5.97 µM
COc1ccc(S(=O)(=O)c2c(N)n(C3CCCCC3)c3nccnc23)cn1 [Example 115, 5-cyclohexyl-7-(6-methoxypyridine-3-sulfonyl)-5H-pyrrolo[2,3-b]pyrazin-6-amine] | 4.56 µM
CCC(C)NS(=O)(=O)c1c(N)n(C2CCCCC2)c2nccnc12 (stereo not drawn) [Example 95, 6-amino-N-(butan-2-yl)-5-cyclohexyl-5H-pyrrrolo[2,3-b]pyrazine-7-sulfonamide] | 0.334 µM
COc1ccc(S(=O)(=O)c2c(N)n(C3CCCCC3)c3nccnc23)cc1 [Example 108, 5-cyclohexyl-7-[(4-methoxybenzene)-sulfonyl]-5H-pyrrolo[2,3-b]pyrazin-6-amine] | 0.078 µM
Nc1c(S(=O)(=O)c2cccc(F)c2)c2nccnc2n1C1CCCCC1 [Example 110, 5-cyclohexyl-7-[(3-fluorobenzene)sulfonyl]-5H-pyrrolo[2,3-b]pyrazin-6-amine] | 0.343 µM
COCC1CCN(S(=O)(=O)c2c(N)n(C3CCCCC3)c3nccnc23)C1 (stereo not drawn) [Example 88, 5-cyclohexyl-7-[3-(methoxyrnethyl)pyrrolidine-1-sulfonyl]-5H-pyrrolo[2,3-b]pyrazin-6-amine] | 3.15 µM

SMILES | EC50
Nc1c(S(=O)(=O)c2ccccc2)c2cnccc2n1C1CCCCC1 [Example 23, 3-(benzenesulfonyl)-1-cyclohexyl-1H-pyrrolo[3,2-c]pyridin-2-amine] | 1.05 µM
Nc1c(S(=O)(=O)N2CCCC2)c2nccnc2n1C1CCCCC1 [Example 58, 5-cyclohexyl-7-(pyrrolidin-1-ylsulfonyl)-5H-pyrrolo[2,3-b]pyrazin-6-amine] | 2.24 µM
COc1cccc(S(=O)(=O)c2c(N)n(C3CCCCC3)c3nccnc23)c1 [Example 112, 5-cyclohexyl-7-[(3-methoxybenzene)-sulfonyl]-5H-pyrrolo[2,3-b]pyrazin-6-amine] | 0.295 µM
Nc1c(S(=O)(=O)N2CCCOCC2)c2nccnc2n1C1CCCCC1 [Example 72, 5-cyclohexyl-7-(1,4-oxazepane-4-sulfonyl)-5H-pyrrolo[2,3-b]pyrazin-6-amine] | 1.8 µM
CC(C)Oc1ccc(S(=O)(=O)c2c(N)n(C3CCCCC3)c3nccnc23)cc1 [Example 7, 5-cyclohexyl-7-{[4-(propan-2-yloxy)benzene]sulfonyl}-5H-pyrrolo[2,3-b]pyrazin-6-amine] | 0.172 µM
Nc1c(S(=O)(=O)c2ccccc2)c2nccnc2n1CCC1CCC1 [Example 50, 5-(2-cyclobutylethyl)-7-(phenylsulfonyl)-5H-pyrrolo[2,3-b]pyrazin-6-amine] | 0.76 µM
Nc1c(S(=O)(=O)N2CCC(Cc3ccccc3)CC2)c2nccnc2n1C1CCCCC1 [Example 81, 7-(4-benzylpiperidine-1-sulfonyl)-5-cyclohexyl-5H-pyrrolo[2,3-b]pyrazin-6-amine] | 1.25 µM
CN(C1CCCCC1)S(=O)(=O)c1c(N)n(C2CCCCC2)c2nccnc12 [Example 71, 6-amino-N,5-dicyclohexyl-N-methyl-5H-pyrrolo[2,3-b]pyrazine-7-sulfonamide] | 8.38 µM
CCCN(C)S(=O)(=O)c1c(N)n(C2CCCCC2)c2nccnc12 [Example 60, 6-amino-5-cyclohexyl-N-methyl-N-propyl-5H-pyrrolo[2,3-b]pyrazine-7-sulfonamide] | 1.41 µM
N#Cc1ncnc2c(S(=O)(=O)c3ccccc3)c(N)n(C3CCCCC3)c12 [Example 37, 6-amino-7-(benzenesulfonyl)-5-cyclohexyl-5H-pyrrolo[3,2-d]pyrimidine-4-carbonitrile] | 0.468 µM
Nc1c(S(=O)(=O)c2ccccc2)c2ccncc2n1C1CCCCC1 [Example 20, 3-(benzenesulfonyl)-1-cyclohexyl-1H-pyrrolo[2,3-]pyridin-2-amine] | 2.36 µM
Nc1c(S(=O)(=O)NCc2ccccc2)c2nccnc2n1C1CCCCC1 [Example 70, 6-amino-N-benzyl-5-cyclohexyl-5H-pyrrolo[2,3-b]pyrazine-7-sulfonamide] | 3.28 µM
CCOC1CCN(S(=O)(=O)c2c(N)n(C3CCCCC3)c3nccnc23)CC1 [Example 65, 5-cyclohexyl-7-((4-ethoxypiperidin-1-yl)sulfonyl)-5H-pyrrolo[2,3-b]pyrazin-6-amine] | 0.21 µM
Cc1ccc(S(=O)(=O)c2c(N)n(C3CCCC3)c3nccnc23)cc1 [Example 4, 5-cyclopentyl-7-[(4-methylbenzene)sulfonyl]-5H-pyrrolo[2,3-b]pyrazin-6-amine] | 0.908 µM
Nc1c(S(=O)(=O)N2CCC(C(F)(F)F)CC2)c2nccnc2n1C1CCCCC1 [Example 87, 5-cyclohexyl-7-[4-(trifluoromethyl)piperidine-1-sulfonyl]-5H-pyrrolo[2,3-b]pyrazin-6-amine] | 1.55 µM
Nc1c(S(=O)(=O)N2CCCCC2)c2nccnc2n1C1CCCCC1 [Example 57, 5-cyclohexyl-7-(piperidin-1-ylsulfonyl)-5H-pyrrolo[2,3-b]pyrazin-6-amine] | 0.259 µM
COc1ccc(S(=O)(=O)c2c(N)n(C3CCC(F)(F)CC3)c3cccnc23)cc1 [Example 22, 1-(4,4-difluorocyclohexyl)-3-[(4-methoxybenzene)sulfonyl]-1H-pyrrolo[3,2-b]pyridin-2-amine] | 0.167 µM
Nc1c(S(=O)(=O)NCC2CC2)c2nccnc2n1C1CCCCC1 [Example 89, 6-amino-5-cyclohexyl-N-(cyclopropylmethyl)-5H-pyrrolo[2,3-b]pyrazine-7-sulfonamide] | 0.658 µM
